Article PMC5431435, “A short artificial antimicrobial peptide shows potential to prevent or treat bone infections” (Scientific Reports, 2017)

Key:
Format in all cases: cell-based, Staphylococcus aureus
[1] = test system: S. aureus; assay: Effect of FCS on AMP2 activity; details: for bacterial growth: then 3 h with S. aureus, mean ± StD, n = 3
Procedure: In a further experiment the possible effect of serum on AMP activity was investigated. AMP2 (67 µg/ml) was preincubated for 2 hours at 37 °C with different concentrations of FCS and then added to S. aureus.
In addition, the influence of fetal calf serum (FCS, containing 17 g/l albumin; Biochrom, Germany) on AMP activity was determined by preincubating 67 µg/ml of the AMP2 with 0–10% FCS at 37 °C for 2 hours followed by incubation with S. aureus for 3 hours. The control group, without AMP, was FCS free (n = 3).

[2] = test system: S. aureus (ATCC 29213); assay: Zone of inhibition test of PDLLA-coated titanium wires; details: 10, 20, 30% w/w in poly(D,L-lactide) coating, n = 3
Procedure: Titanium wires (diameter 1 mm, Synthes, USA) were coated with Poly(D,L-lactide) (PDLLA, Boehringer Ingelheim, Germany) and incorporated AMP2 at three different concentrations: 10% w/w, 20% w/w, or 30% w/w. Gentamicin/PDLLA (10% w/w) or PDLLA coated wires served as control. Briefly, 100 mg PDLLA was solved in 1.5 ml ethyl acetate and the wires were coated in a dipping procedure. Details of the coating were described previously. Three nails of each group were placed on Mueller-Hinton agar plates plated with S. aureus (ATCC 29213) and the zone of inhibition (ZOI) was quantified after 1, 3, 7, and 14 days using ImageJ software.

[3] = test system: S. aureus biofilm; assay: Biofilm assay by microcalorimetry and plating (MBCB); details: for inhibition of the biofilm compared to the growth control: MH++, n = 6
Procedure: To confirm MIC of the AMP2 by isothermal microcalorimetry, three different bouillons were tested: Mueller-Hinton II bouillon with adjusted cations (MH^++; BBL, Germany), Mueller-Hinton bouillon with low cations (MH^+; with 3–4 mg/l Ca^2+ and 5–6 mg/l Mg^2+; Oxoid, Germany) and Mueller-Hinton bouillon without cations (MH^−; Merck, Germany). AMP2 concentrations of 2–33 µg/ml were tested with the three different bouillons and gentamicin concentrations of 0.125–2 µg/ml were analyzed with MH^++. Staphylococcus aureus (ATCC 29213, 300 µl with 10^5 cfu/ml) was added to each microcalorimetry glass ampoule (Waters; Germany) containing 3.7 ml of AMP or gentamicin solution of (n = 3). The ampoules were hermetically sealed and heat flow (W) was measured for 24 hours in the calorimeter TAM III (TA Instruments, USA). For the biofilm assay, S. aureus biofilm was grown on glass beads (4 mm diameter, 60 µm pores; ROBU Glasfilter-Geräte, Germany) in MH^++ bouillon at 37 °C in an aerobe atmosphere for 24 hours. After washing with sodium chloride, beads were incubated with AMP2 (133, 267, 533 µg/ml) or daptomycin (128 µg/ml) in MH^++ bouillon for another 24 hours at 37 °C. Beads were washed again and added to the glass ampoule with fresh MH^++ bouillon. The total heat (J) was measured for 48 hours in the calorimeter. A concentration, which inhibits minimum 90% of biofilm, can be defined as the minimal biofilm inhibitory concentration (MICB). All samples were tested with n = 6.
Furthermore, the MBC for biofilms (MBCB) where 99.9% of all bacteria are killed was determined. After measurement, bouillon and glass beads were plated on CA plates and incubated for 24 hours at 37 °C in an aerobe atmosphere.

“KRRWRIWLV [AMP2, 9mer cationic antimicrobial peptide … from an optimized peptide library]” gave a bacterial growth ([1]; AMP2 67 µg/ml preincubated 2 h at 37 °C with 0% FCS) of 7 ± 9 cfu/ml, a bacterial growth ([1]; AMP2 67 µg/ml preincubated 2 h at 37 °C with 0.1% FCS) of 37 ± 13 cfu/ml and a bacterial growth ([1]; AMP2 67 µg/ml preincubated 2 h at 37 °C with 1% FCS) of 553 ± 255 cfu/ml. For the same sequence, the bacterial growth ([1]; AMP2 67 µg/ml preincubated 2 h at 37 °C with 10% FCS) was 2,078 ± 540 cfu/ml, the “bacterial growth compared to the group without AMP” value ([1]; AMP2 67 µg/ml, 10% FCS) was “less than 2%” and the “Zone of Inhibition, activity of incorporated peptide” value [2] was “inhibited the growth of S. aureus in a dose dependent manner”. For the same sequence, the “inhibition of the biofilm compared to the growth control” value ([3]; 133 µg/ml AMP2, total heat after 48 hours) was 13 ± 4%, the “inhibition of the biofilm, single samples” value ([3]; 267 µg/ml AMP2, five of the six samples (the sixth completely killed the bacteria)) was 18–38% and the “inhibition of the biofilm compared to the growth control” value ([3]; 267 µg/ml AMP2, total heat after 48 hours) was 35 ± 29%. The “killing of the biofilm (MBCB determination by plating samples and glass beads)” value ([3]; 533 µg/ml AMP2, all samples, no growth on agar plates) was “totally killed” and the “inhibition of the biofilm compared to the growth control” value ([3]; 533 µg/ml AMP2, total heat after 48 hours) was 97 ± 1%.
